Data as given in PubChem BioAssay AID179 (DTP/NCI, 2004).
Values joined by “and” are separate entries in the source; they are usually repeats but may differ in a detail not shown here. Equal values may be shown once. Active and inactive are the calls of the source.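 Rule for the calls: active = compounds giving half or more protection of infected cells from virus-caused growth loss, again on retest; inactive = the rest.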

Test system: CEM cells HIV-1 protection, formazan growth assay
Experiment: NCI AIDS Antiviral Assay
Conditions: for IC50: measured here: growth of uninfected CEM cells
Method in brief: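 Screen of anti-HIV-1 activity in human CEM cells using a formazan-based growth measurement at five drug concentrations. Hits with 50% or greater protection were repeated, and confirmation required reproducible complete protection.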

| Structure (SMILES) | EC50 | IC50 [µM] | outcome |
| --- | --- | --- | --- |
| CC(O)C[P+](c1ccccc1)(c1ccccc1)c1ccccc1 (centres undefined) | > 200 µM | 15.8 | – |
| C=C1CC(COc2cc(=O)oc3ccccc23)(c2ccccc2)OC1=O (centres undefined) | > 200 µM | 0.38 | – |
| [N-]=[N+]=CC(=O)OCC1SCCCS1 | > 200 µM | > 200 | – |
| O=C1OC(C(=O)O)c2ccc3c(c21)OCO3 (centres undefined) | > 398 µM | > 398 | – |
| O=C(OCC(Cl)(Cl)Cl)O[C@@H]1CCCC1(c1ccccc1)c1ccccc1 | > 135 µM | 49 | – |
| CCC[CH2][Sn]1([CH2]CCC)[O]CC(CN2CCOCC2)[O]1 (centres undefined) | > 4.57 µM | 0.295 | – |
| O=P(c1ccccc1)(c1ccccc1)C(NCc1ccccc1)c1ccc(F)cc1 (centres undefined) | > 200 µM | 12.9 | – |
| O=[N+]([O-])c1cc[n+]([O-])cc1 | > 1410 µM | 8.91 | – |
| C=CCCC(=O)C(=[N+]=[N-])C(=O)CCC(=O)c1ccccc1 | > 200 µM | 20 | – |
| CCCCCCCCCCCCC(=O)N1CCOCC1 | > 200 µM | 52.5 | – |
| CCCCCCCCCCCCCCOP(=O)(O)OCCC=C(c1cc(Cl)c(O)c(C(=O)O)c1)c1cc(Cl)c(O)c(C(=O)O)c1 | > 200 µM | > 100 | – |
| Cc1ccc(S(=O)(=O)OC2C3CCC4C(COC42)C3)cc1 (centres undefined) | 79.4 µM and 77.6 µM | > 200 | – |
| COc1ccc(-c2cc(-c3ccc(C)cc3)n(C3OC(COC(C)=O)C(OC(C)=O)C(OC(C)=O)C3OC(C)=O)c(=S)c2C#N)cc1 (centres undefined) | > 200 µM | > 200 | – |
| Cc1[nH]cc2c1C(c1ccccc1F)=NCC(=O)N2 | > 229 µM | > 229 | – |
| N#CC1(c2ccccc2)CCN(C2(c3ccccc3)CCCCC2)CC1 | > 200 µM | > 200 | – |
| O=C(NN1C(=O)C(Cl)C1c1cccc(O)c1)c1ccccc1O (centres undefined) | > 151 µM | 141 | – |
| Cc1c(O)c(OC2OC(CO)C(O)C(O)C2O)cc2c1C=C[C@@H]1[C@@]2(C)C(=O)C[C@]2(C)[C@@H]([C@@](C)(O)C(O)/C=C/C(C)(C)O)[C@H](O)C[C@@]12C (some centres undefined) | > 200 µM | > 200 | – |
| CC(=O)OC(Cc1c(O)c2c(C)cccc2oc1=O)C(C)(C)O (centres undefined) | > 200 µM | 91.2 | – |
| COc1ccc(N=C2C(=Nc3ccc(OC)cc3)N(S(=O)(=O)c3ccccc3)C(=S)N2c2ccccc2)cc1 | > 200 µM | > 200 | – |
| O=C(O)/C=C/c1ccc(/C=C/C(=O)O)cc1 | > 200 µM | > 200 | – |
| COc1ccc(C2SCC(=O)N2N=C2NC(=O)CC(=O)N2)cc1 (centres undefined) | > 200 µM | > 200 | – |
| C=CCC(C=C=CCN(C)C)CO (centres undefined) | > 1200 µM | 631 | – |
| O=C1/C(=C/c2ccc(Cl)c(Cl)c2)CCC/C1=C\c1ccc(Cl)c(Cl)c1 | > 50.1 µM | 2.95 | – |

| Structure (SMILES) | EC50 | IC50 [µM] | outcome |
| --- | --- | --- | --- |
| CN(C)CCNC(=O)c1cc([N+](=O)[O-])ccn1 | > 200 µM | 95.5 | – |
| CC(=O)C1Cn2c(nc3ccccc32)C[Se]1 (centres undefined) | – | – | inactive |
| COc1cc2c(cc1OC)C13CCN4CC5CCOC6CC(=O)N2C1C6C5CC43 (centres undefined) | > 200 µM | > 200 | – |
| CCN1CC2(C)CCC(OC)C34C5CC6CCC(O)(C5C(=O)O6)C(C(O)C23)C14 (centres undefined) | – | – | inactive |
| CC(C)(C)c1ccc(O)c(C(O)c2ccncc2)c1 (centres undefined) | > 200 µM | 79.4 | – |
| CC12CCc3ccccc3C1=NNC(=O)C2 (centres undefined) | > 170 µM | > 170 | – |
| O=C1CCCCCCCCCCC1CN1CCOCC1 (centres undefined) | > 72.4 µM | > 72.4 | – |
| COc1cc(O)c2c(=O)c3c(C)cccc3n(C)c2c1 | > 200 µM | 72.4 | – |
| C=CC1C(=C)CCC2C1CCC1C(C)(C(=O)O)CCCC21C (centres undefined) | – | – | inactive |
| O=c1ccc2c(-c3ccccc3O)c3ccc(O)cc3oc-2c1 | > 95.5 µM | 17.4 | – |
| CC(C)(c1ccc(OC#N)cc1)c1ccc(OC#N)cc1 | > 67.6 µM | > 67.6 | – |
| CCc1cccc(C(C)CC)c1NC(=O)C(=O)C(CC(=O)Nc1ccc(Cl)c(Cl)c1)C(=O)OC (centres undefined) | > 186 µM | > 186 | – |
| CN1C/C(=C\c2cccs2)C2=NN(C)C(c3cccs3)C2C1 (centres undefined) | > 200 µM | > 200 | – |
| CC(=O)/C=C\C(=O)NNS(=O)(=O)c1ccc(C)cc1 | > 891 µM | 832 | – |
| CCOc1ccccc1NC(=O)/C(=N\NC(C)(C)C)C1C(=O)Nc2ccccc2S1=O (centres undefined) | > 112 µM | 17.8 | – |
| Cc1n[nH]c(=O)n1/N=C/c1ccncc1 | > 200 µM | 102 | – |
| O=C1c2ccccc2-c2nnsc21 | > 191 µM | 141 | – |
| COC(=O)CC1(C)[C@H](O)[C@H]2OC(C)(C)O[C@H]2[C@@H]1O (some centres undefined) | > 955 µM | > 955 | – |
| COc1ccc(/C=C/C(=O)c2sc(N)nc2C)cc1 | > 912 µM | 479 | – |
| O=C(Nc1ccc([N+](=O)[O-])cn1)Nc1ccccc1F | > 200 µM | > 200 | – |
| O=C1c2cccc3cccc(c23)C(=O)N1NCCO | > 200 µM | 162 | – |
| O=C(/C=C/c1ccccc1)NC1C=Nc2ccc(Cl)cc2NC1=O (centres undefined) | > 200 µM | 25.7 | – |
| C[N+]1(CCNP(=S)(NCC[N+]2(C)Cc3c(ccc4c3OCO4)C3C2c2cc4c(cc2C[C@@H]3O)OCO4)NCC[N+]2(C)Cc3c(ccc4c3OCO4)C3C2c2cc4c(cc2C[C@@H]3O)OCO4)Cc2c(ccc3c2OCO3)C2C1c1cc3c(cc1C[C@H]2O)OCO3 (some centres undefined) | > 380 µM | 4.68 | – |

| Structure (SMILES) | EC50 | IC50 [µM] | outcome |
| --- | --- | --- | --- |
| O=P1(Oc2ccccc2)Nc2cc(Cl)ccc2S1 (centres undefined) | > 45.7 µM | 22.4 | – |
| NC(=O)c1ccc([As](=O)(O)O)cc1N | > 200 µM | > 200 | – |
| O=C(CSc1nnc(-c2ccc(N=Cc3ccc(Cl)cc3)cc2)o1)Nc1ccccc1[N+](=O)[O-] | > 20.4 µM | > 20.4 | – |
| Ic1cc2c(cc1C1SCCCS1)OCO2 | > 251 µM | > 251 | – |
| O[C@@]1(C#Cc2ccc3c(c2)OCO3)CCC[C@H]1NCc1ccccc1 | > 200 µM | 36.3 | – |
| Cc1cc(N=Nc2ccc([N+](=O)[O-])cc2)c(NCC(O)C(O)C(O)CO)cc1C (centres undefined) | > 200 µM | 34.7 | – |
| O=C(O)c1nc2ccccc2nc1NCc1ccc(F)cc1 | > 200 µM | 56.2 | – |
| CN(C)c1ccc(/C=C(\NC(=O)c2ccccc2)c2nc3ccccc3c(=O)o2)cc1 | > 100 µM | > 100 | – |
| ClCc1c(-c2ccccc2)nn(-c2ccccc2)c1CCl | > 200 µM | 6.17 | – |
| CNC(=O)c1cn(C2OC(CO)C(O)C2O)c2ncnc(N)c12 (centres undefined) | > 2 µM | 1.2 | – |
| N=C(N)c1ncn(C2OC(CO)C(O)C2O)n1 (centres undefined) | – | – | inactive |
| Cc1ccc2c3c(nsc13)-c1ccccc1C2=O | > 53.7 µM | > 53.7 | – |
| Oc1ccc(-c2csc(NNC3=NC/C(=C/c4ccc5c(c4)OCO5)S3)n2)cc1O | > 200 µM | 64.6 | – |
| CO[C@@H]1C2C3c4ccccc4C(c4ccccc43)C2[C@H](OC)[C@H]2OC(c3ccccc3)O[C@H]21 (some centres undefined) | > 67.6 µM | > 67.6 | – |
| Nc1ccccc1CN1C(=O)c2ccccc2C1=O | > 200 µM | 3.55 | – |
| C[Si](C)(C)N1N=NC2C(=O)N(c3ccccc3)C(=O)C21 (centres undefined) | > 200 µM | > 200 | – |
| O=c1c(-c2nn[nH]n2)cnc2sc3cc(Cl)ccc3n12 | > 200 µM | 89.1 | – |
| Cc1ccc(S(=O)(=O)N2c3ccccc3[C@H]3CCc4c([nH]c5ccccc45)[C@H]32)cc1 | 35.5 µM | > 100 | – |
| O=c1oc2ccccc2c(O)c1C(c1cnc2ccccc2c1)c1c(O)c2ccccc2oc1=O | – | – | inactive |
| O=C1C(=O)c2ccccc2C(O)=C1C(C1=C(O)c2ccccc2C(=O)C1=O)c1ccccc1 | > 200 µM | 20.9 | – |
| CCN(CC)CCNc1nc(N)c(C#N)c(C#N)c1C#N | > 200 µM | 174 | – |
| COC(=O)c1nn(-c2ccccc2)c(=O)cc1N=[N+]=[N-] | > 200 µM | 112 | – |
| OCC(O)C(O)C(O)c1nn(-c2ccc(F)cc2)c2nc3cc(Cl)c(Cl)cc3nc12 (centres undefined) | – | – | inactive |

| Structure (SMILES) | EC50 | IC50 [µM] | outcome |
| --- | --- | --- | --- |
| CC(=O)Nc1c(C#N)c2n(c1C(=O)Nc1ccc(C)cc1)CCC2 | > 100 µM | > 100 | – |
| CC1CCCN2C(=O)CN(Cc3ccccc3)CC(=O)N12 (centres undefined) | – | – | inactive |
| c1ccc2c(C3NCCc4[nH]cnc43)cccc2c1 (centres undefined) | > 525 µM | > 525 | – |
| c1ccc2c3c([nH]c2c1)C1CCCN1CC3 (centres undefined) | > 617 µM | 174 | – |
| O=C1Cc2c(-c3cccs3)cc(-c3ccccc3)nc2-c2ccccc2N1 | > 200 µM | 46.8 | – |
| COc1ccc(NC(=O)CC(=O)n2nc(-c3ccccc3)c(N=Nc3ccc(C)cc3)c2-c2ccccc2)cc1 | > 9.77 µM | > 9.77 | – |
| CCN(CC)C(=S)SS(=O)(=O)c1ccc(Cl)cc1 | > 200 µM | 12 | – |
| Nc1ccc(I)cn1 | > 200 µM | > 200 | – |
| COc1ccc(C=C(C(=O)c2ccccc2)C(=O)c2ccccc2)cc1 | > 20.9 µM | > 20.9 | – |
| O=C(NCCCCCCNC(=O)c1cnc2ccccc2n1)c1cnc2ccccc2n1 | > 83.2 µM | > 83.2 | – |
| Oc1ccc(SCc2cc(O)c(O)c(O)c2)cc1 | > 200 µM | 6.92 | – |
| CN(C)C(=S)/N=c1\ssc(=S)n1-c1ccccc1 | – | – | inactive |
| CC1(c2cccc([N+](=O)[O-])c2)C(C#N)C(=O)NC(=O)C1C#N (centres undefined) | > 417 µM | 245 | – |
| CCCCCCc1cc2c(C)c(C)c(=O)oc2cc1OCCCOc1cc2oc(=O)c(C)c(C)c2cc1CCCCCC | > 22.9 µM | > 22.9 | – |
| CNC(=O)NCCc1c[nH]c2ccccc12 | > 200 µM | > 200 | – |
| CCOC(=O)C(C(=O)OCC)C(C(=O)OCC)(C(=O)OCC)C(C(=O)OCC)C(=O)OCC | – | – | inactive |
| O=C(CCl)Nc1ccc(SSc2ccc(NC(=O)CCl)cc2)cc1 | > 2 µM | 1.35 | – |
| CCOc1ccc(/C=C2/NC(=S)N(CN3CCCCC3)C2=O)cc1 | > 200 µM | 72.4 | – |
| CC1=C[P+](CCc2ccccc2)(CCc2ccccc2)C=C1C | – | – | inactive |
| O=C1C(=O)N(C(=O)c2ccc(Cl)c(Cl)c2)c2ccccc21 | – | – | inactive |
| CC(C)(C)[Si](C)(C)OCC1OC(n2ccc(=O)[nH]c2=O)C(O[Si](C)(C)C(C)(C)C)/C1=N/O (centres undefined) | > 200 µM | 4.07 | – |
